This is an account of results in patent US20170051014A1, “PEPTIDE HAVING EFFICACY FOR REMEDYING HYPOPIGMENTATION AND INHIBITING ADIPOGENESIS, AND USE OF SAME” (CAREGEN CO., LTD., priority 2014, published 2017).

Bridge positions count the residues as written; N and C are the ends.

For data set [1] the following is noted: cited from earlier work; for side effects / weight loss effect: background statement on marketed anti-obesity drugs.
In the next data set the test system is CREB. Kind of data set: Melanogenesis signaling molecules by western blot: CREB phosphorylation. Format: cell-based, mouse. The conditions noted are these: B16F10 cells, observed over time (6 to 24 hours). How it is done:
Melanocytes (B16F10 cell line) were incubated on 6-well culture plates in an incubator for 24 hours, and were treated with the peptide of the present invention with different concentrations. After the cells were incubated for from 6 to 24 hours, the cells were dissolved, and then the CREB phosphorylation and MITF expression, which are signaling molecules involved in melanogenesis, were observed by western blot assay using antibodies specific thereto. The test was carried out using anti-pCREB antibody (Santa Cruz Biotechnology, USA) and anti-MITF antibody (Santa Cruz Biotechnology, USA).

The next data set concerns MITF. Put plainly: Melanogenesis signaling molecules by western blot: MITF. Format: cell-based, mouse. To be noted: B16F10 cells, observed over time (6 to 24 hours). How it is done:
Melanocytes (B16F10 cell line) were incubated on 6-well culture plates in an incubator for 24 hours, and were treated with the peptide of the present invention with different concentrations. After the cells were incubated for from 6 to 24 hours, the cells were dissolved, […], which are signaling molecules involved in melanogenesis, were observed by western blot assay using antibodies specific thereto. The test was carried out using anti-pCREB antibody (Santa Cruz Biotechnology, USA) and anti-MITF antibody (Santa Cruz Biotechnology, USA).

Data set [2] has as its system tyrosinase. Kind of data set: Melanogenic enzyme gene level by RT-PCR: tyrosinase. It is filed as cell-based, mouse. To be noted: B16F10 cells, 6-hour treatment and 24-hour treatment. As for the experimental part:
(§1) Melanocytes (B16F10 cell line) were incubated on 6-well culture plates in an incubator for 24 hours, and were treated with the peptides of the present invention with different concentrations. After the incubation for hours, the cells were taken off, and then, the increases in the expressions of tyrosinase and TRP1, which are enzymes involved in melanogenesis, were observed by RT-PCR using primers specific thereto.
(§2) Target-specific primer sequences used in PCR for enzymes involved in melanogenesis were as follows: Tyrosinase forward primer sequence, 5′-[…]-3′ and tyrosinase reverse primer sequence, 5′-[…]-3′ (annealing temperature, 51° C.); TRP1 forward primer sequence, 5′-[…]-3′ and TRP1 reverse primer sequence, 5′-[…]-3′ (annealing temperature, 60° C.)

The subject of another data set is TRP1. Kind of data set: Melanogenic enzyme gene level by RT-PCR: TRP1. Format: cell-based, mouse. The conditions noted are these: B16F10 cells, 6-hour treatment and 24-hour treatment. As for the experimental part:
as §1, §2

Data set [3] relates to tyrosinase. Kind of data set: Melanogenic enzyme protein level by western blot: tyrosinase. It is filed as cell-based, mouse. To be noted: B16F10 cells, 6-hour treatment and 24-hour treatment. As for the experimental part:
Melanocytes (B16F10 cell line) were incubated on 6-well culture plates in an incubator for 24 hours, and were treated with the peptide of the present invention with different concentrations. […] The test was conducted using an anti-tyrosinase antibody (Santa Cruz Biotechnology, USA).
(In general: Immunoblotting shows a protein as a band on a membrane.)

Data set [4] concerns Pre-adipocytes (3T3-L1 cell line). Put plainly: Measurement of triglyceride amount in differentiating pre-adipocytes. It is filed as cell-based. The conditions noted are these: 3T3-L1 cells with differentiation inducing material, incubation for 7 days, absorbance 540 nm. As for the experimental part:
Pre-adipocytes (3T3-L1 cell line) were incubated on 24-well plates for 48 hours, and then treated with the peptide of the present invention with different concentrations together with a differentiation composition (0.5 mM IBMX, […], […]), followed by incubation for 7 days. The cells were taken off, and then put in a dissolution buffer (50 mM Tris, 150 mM NaCl, 1% Triton X-100, proteolytic enzyme inhibitor), and kept in ice for 30 minutes. After centrifugation at 14,000 g for 10 minutes, the supernatant containing an oil layer was collected, and a triglyceride reagent was added thereto, followed by reaction in an incubator at 37° C. for 5 minutes. The absorbance was measured at 540 nm to determine the amount of triglycerides.

In another data set the test system is perilipin. Kind of data set: Adipogenesis-related gene expression by RT-PCR: perilipin. It is filed as cell-based. To be noted: 3T3-L1 cells with differentiation inducing material, incubation for 7 days. As for the experimental part: (§3) Pre-adipocytes (3T3-L1 cell line) were incubated on 6-well plates for 48 hours, and then treated with the present peptide with different concentrations together with a differentiation composition (0.5 mM IBMX, […], […]), followed by incubation for 7 days. After the incubation, PT-PCR was conducted using primers specific to perilipin and PPARγ, which are genes involved in the adipogenesis mechanism. It was investigated whether the mRNA values of perilipin and PPARγ were inhibited.
(§4) Target-specific primer sequences used in PCR for enzymes involved in adipogenesis were as follows: perilipin forward primer sequence, 5′-[…]-3′ and perilipin reverse primer sequence, 5′-[…]-3′ (annealing temperature, 60° C.); PPARγ forward primer sequence, 5′-[…]-3′ and PPARγ reverse primer sequence, 5′-[…]-3′ (annealing temperature, 60° C.)

Another data set relates to PPARγ. Put plainly: Adipogenesis-related gene expression by RT-PCR: PPARγ. Format: cell-based. The conditions noted are these: 3T3-L1 cells with differentiation inducing material, incubation for 7 days. How it is done: as §3, §4

Consider `CC(C)CC(N(C)C)C1(c2ccc(Cl)cc2)CCC1` (stereo not shown) [Reductil], for which, in [1], the side effects result is “cardiovascular diseases, such as stroke and myocardial infarction”; the weight loss effect is given as 5-10%.
On to `CCCCCCCCCCC[C@@H](C[C@@H]1OC(=O)[C@H]1CCCCCC)OC(=O)[C@H](CC(C)C)NC=O` [Xenical], for which, in data set [1], the side effects entry is on record as “frequent diarrhea” and the weight loss effect is 2-3%.
On to “NH2-Gln-Cys-Arg-Phe-Phe-Arg-Ser-Ala-Cys-COOH (H-QCRFFRSAC-OH; cysteine pairing not given here) [SEQ ID NO: 1]”, for which the “phosphorylation level of CREB” value with CREB is given as “increased”. In the data set with MITF, the “MITF protein expression level” value is “increased”. The “expression of tyrosinase gene” value with tyrosinase [2] is “increased compared with a control”. Further, the “expression of TRP1 gene” value in the data set with TRP1 was “increased compared with a control”. Besides, the “expression of tyrosinase protein” value with tyrosinase [3] is “increased compared with a control”. The “level of triglycerides accumulated in cells” value in data set [4] is recorded as “reduced in a concentration-dependent manner”. Further, in the data set with perilipin, the “gene expression of perilipin” value was “reduced compared with a control”. The “gene expression of PPARγ” value in the data set on PPARγ is reported as “reduced compared with a control”.
In the case of `Cn1c(=O)c2[nH]cnc2n(C)c1=O` [aminophylline], the “effect of reducing body fat” value in data set [1] (background statement on anti-obesity drugs) is given as “excellent effect of reducing body fat”. Besides, the side effects entry in [1] is “broad side effects throughout the mental nervous system, circulatory system, and digestive system”.
Regarding “NH2-Tyr-Cys-Arg-Phe-Phe-Asn-Ala-Phe-Cys-COOH (H-YCRFFNAFC-OH; disulfide 2-9 (inferred)) [SEQ ID NO: 2]”, in the data set with CREB, the “phosphorylation level of CREB” value was “increased”. For the same molecule, the “MITF protein expression level” value in the data set with MITF is given as “increased”. Also, the “expression of tyrosinase gene” value in the data set with tyrosinase [2] is recorded as “increased compared with a control”. Further, the “expression of TRP1 gene” value in the data set on TRP1 is on record as “increased compared with a control”. In the data set with tyrosinase [3], the “expression of tyrosinase protein” value is on record as “increased compared with a control”. Besides, in [4], the “level of triglycerides accumulated in cells” value is given as “reduced in a concentration-dependent manner”. In addition, the “gene expression of perilipin” value with perilipin is recorded as “reduced compared with a control”. The “gene expression of PPARγ” value with PPARγ was “reduced compared with a control”.
